Laboratory results reported in patent US12565514B2, “Nucleic acid containing perfluoroalkyl group, and method for its production” (AGC Inc., priority 2019, dated 2026).
{C5-PFC} = N[C5-PFC] unit carrying a C5 perfluoroalkyl group, added by phosphoramidite

What follows are substances tested on HeLa cells (assay: Cellular uptake of fluorescein-modified nucleic acids by flow cytometry). Settings: single-stranded nucleic acid with fluorescein at 3′-end, 2.5 μM in DMEM, incubated 4 or 24 hours.
Format: cell-based
Protocol: HeLa cells were cultured in Dulbecco's modified Eagle's medium (DMEM, Thermo Fischer Scientific) supplemented with 10% FBS and 0.5% penicillin/streptomycin in a humidified atmosphere (5 volume % CO2) at 37° C. Cells for image analysis were cultured in a 35 mm glass bottom dish (manufactured by IWAKI).
HeLa cells were seeded in 12-well plates at a density of 10^5 cells/well and cultured. On the day after seeding, the medium in each well was replaced with DMEM medium (1 mL) containing DNA (2.5 μM) modified with fluorescein-bound N[PFC] or N[PFPE], and incubated for 4 or 24 hours. Then, the cell layer in the wells was washed twice with PBS, and the cells were detached by treatment with 0.05% (w/v) trypsin (200 μL) at 37° C. for 5 min. The recovered cells were suspended in DMEM (600 μL). The cell suspension was separated by centrifugation process (400G, 3 min), and PBS/1% BSA (500 μL) was added. The percentage of fluorescent cells and the average fluorescence intensity of this cell suspension were analyzed by a flow cytometer (“guava easyCyte8”, manufactured by Luminex).
In the case of double-stranded DNA, a sample was denatured at 100° C. and annealed by slowly bringing it down to room temperature.
The nucleic acid having fluorescein bonded to the 3′-end of the N[C8-PFC]-modified DNA synthesized in Example 2 was, as a single strand or as a double strand, added to the culture medium of HeLa cells and incubated, whereby the efficiency of cellular uptake was examined by flow cytometry.
The nucleic acid having fluorescein bonded to the 3′-end of the N[C5-PFPE]-modified DNA synthesized in Example 1 was, as a single strand, added to the culture medium of HeLa cells and incubated, whereby the efficiency of cellular uptake was examined by flow cytometry.

Substance	cellular uptake (flow cytometry)
5′-(N[C5-PFC])2TTTTTCAGTTGACCATATA-3′ [F2]	higher cellular uptake than the fluorescein-modified nucleic acid of cont-DNA
5′-(N[C5-PFC])5TTTTTCAGTTGACCATATA-3′ (DNA, 5' {C5-PFC}-{C5-PFC}-{C5-PFC}-{C5-PFC}-{C5-PFC}, backbone not given here) [F5]	higher cellular uptake than the fluorescein-modified nucleic acid of cont-DNA
5′-(N[C5-PFC])TTTTCAGTTGACCATATA-3′ (DNA, 5' {C5-PFC}, backbone not given here) [F1]	no difference from the fluorescein-modified nucleic acid of cont-DNA
